Assay results reported in paper PMC4303309 (Biochemistry, 2014).

Molecular target: DaCld (Dechloromonas aromatica (nom. nud.), UniProt Q47CX0)
Conditions: MCD as HOCl trap

DaCld, sequence (Q47CX0 35-282 limits assumed): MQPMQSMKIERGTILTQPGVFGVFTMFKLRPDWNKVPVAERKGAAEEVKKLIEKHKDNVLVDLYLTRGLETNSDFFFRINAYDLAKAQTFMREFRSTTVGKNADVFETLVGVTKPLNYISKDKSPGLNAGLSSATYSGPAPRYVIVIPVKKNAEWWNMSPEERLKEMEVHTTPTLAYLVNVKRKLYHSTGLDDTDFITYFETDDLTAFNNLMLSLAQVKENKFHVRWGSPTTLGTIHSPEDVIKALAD

Structure (SMILES): [O-][Cl+]O [chlorite]
- reaction with chlorite in the presence of MCD (UV-visible): no MCD-trappable HOCl could be detected for DaCld under conditions similar to those used
